Source: PubChem BioAssay (NCI)
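Growth conditions: 96-well plates. Treatment: test compound, 48 hours, 5 concentrations. Analysis: linear interpolation between bracketing concentrations; unreached endpoints set to highest concentration. Here, GI50 denotes the concentration required for 50% inhibition of growth. TGI denotes the concentration required for complete inhibition of growth.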

Legend:
Test in all cases: growth of human tumour cells (NCI), 48 h
SNB-78 CNS = tested on: SNB-78 CNS
HOP-18 NSCLC = tested on: HOP-18 NSCLC
SR leukemia = tested on: SR leukemia
NCI-H23 lung = tested on: NCI-H23 lung
UACC-62 melanoma = tested on: UACC-62 melanoma
DMS 114 small cell lung = tested on: DMS 114 small cell lung
RPMI-8226 leukemia = tested on: RPMI-8226 leukemia
SN12C renal = tested on: SN12C renal
XF 498 CNS = tested on: XF 498 CNS
COLO 205 colon = tested on: COLO 205 colon
A498 renal = tested on: A498 renal
786-0 renal = tested on: 786-0 renal
BT-549 breast = tested on: BT-549 breast

SMILES: N#CCCN(CCC#N)c1ccc(/C=C(\NC(=O)c2cc([N+](=O)[O-])ccc2Cl)C(=O)Nc2ccccc2)cc1
- TGI (SNB-78 CNS): > 100 µM
- TGI (HOP-18 NSCLC): > 100 µM
- TGI (SR leukemia): > 100 µM
- TGI (NCI-H23 lung): > 100 µM
- TGI (UACC-62 melanoma): > 100 µM
- TGI (DMS 114 small cell lung): > 100 µM
- TGI (RPMI-8226 leukemia): > 100 µM
- TGI (SN12C renal): > 100 µM
- TGI (XF 498 CNS): > 100 µM
- TGI (COLO 205 colon): > 100 µM

SMILES: O=C(O)c1cc(=O)c2c(OCC(O)COc3cccc4oc(C(=O)O)cc(=O)c34)cccc2o1
- TGI (SR leukemia): > 100 µM
- TGI (A498 renal): > 83.6 µM
- TGI (NCI-H23 lung): > 100 µM
- TGI (UACC-62 melanoma): > 100 µM
- TGI (RPMI-8226 leukemia): > 100 µM
- TGI (SN12C renal): > 100 µM
- TGI (COLO 205 colon): > 100 µM
- TGI (786-0 renal): > 100 µM
- TGI (BT-549 breast): > 100 µM

SMILES: Cc1ccc([N+](=O)[O-])cc1S(=O)(=O)Nc1ccc(C2=NOC(c3cccs3)C2)cc1 (stereo not given)
- TGI (SR leukemia): 11.5 µM
- TGI (A498 renal): 36.7 µM
- TGI (NCI-H23 lung): 73.4 µM
- TGI (UACC-62 melanoma): 17.8 µM
- TGI (RPMI-8226 leukemia): 94.5 µM
- TGI (SN12C renal): 53.3 µM
- TGI (COLO 205 colon): > 100 µM
- TGI (786-0 renal): 37.7 µM
- TGI (BT-549 breast): 41 µM

SMILES: c1ccc(C(NC2=NCCO2)c2ccccc2)cc1
- TGI (SR leukemia): > 10 µM
- TGI (A498 renal): > 10 µM
- TGI (NCI-H23 lung): > 10 µM
- TGI (UACC-62 melanoma): > 10 µM
- TGI (RPMI-8226 leukemia): > 10 µM
- TGI (SN12C renal): > 10 µM
- TGI (COLO 205 colon): > 10 µM

SMILES: CCOC(=O)C(Cc1cn(C(C)=O)c2ccccc12)P(=O)(OCC)OCC (stereo not given)
- TGI (SR leukemia): > 100 µM
- TGI (NCI-H23 lung): > 100 µM
- TGI (RPMI-8226 leukemia): > 100 µM
- TGI (SN12C renal): > 100 µM
- TGI (COLO 205 colon): > 100 µM

SMILES: C/C(=N\NC(=S)N(C)C)c1nc2ncccc2[nH]1
- TGI (SR leukemia): > 100 µM
- TGI (A498 renal): 69.5 µM
- TGI (UACC-62 melanoma): 2.7 µM
- TGI (RPMI-8226 leukemia): > 100 µM
- TGI (SN12C renal): > 100 µM
- TGI (COLO 205 colon): 23.9 µM
- TGI (BT-549 breast): 6.48 µM

SMILES: COc1cc2cc(C(=O)Nc3cc4n(n3)-c3ccccc3C4)[nH]c2c(OC)c1OC
- TGI (SR leukemia): 11.5 µM
- TGI (A498 renal): 50 µM
- TGI (NCI-H23 lung): 10.5 µM
- TGI (RPMI-8226 leukemia): 3.14 µM
- TGI (SN12C renal): 25.6 µM
- TGI (COLO 205 colon): 9.45 µM
- TGI (786-0 renal): 17.8 µM
- TGI (BT-549 breast): 3.57 µM

SMILES: O=C(Nc1ccc(-n2cc(-c3ccncc3)c(-c3ccc(O)c(Cl)c3)n2)cc1)Nc1ccc(Cl)c(C(F)(F)F)c1
- GI50 (SR leukemia): 3.96 µM
- TGI (SR leukemia): 21.6 µM
- GI50 (A498 renal): 14.8 µM
- TGI (A498 renal): 34.3 µM
- GI50 (NCI-H23 lung): 3.56 µM
- TGI (NCI-H23 lung): 22 µM
- GI50 (UACC-62 melanoma): 3.9 µM
- TGI (UACC-62 melanoma): 14.8 µM
- GI50 (RPMI-8226 leukemia): 1.99 µM
- TGI (RPMI-8226 leukemia): 5.32 µM
- GI50 (SN12C renal): 4.28 µM
- TGI (SN12C renal): 17.2 µM
- GI50 (COLO 205 colon): 6.23 µM
- TGI (COLO 205 colon): 22.9 µM

SMILES: CCCn1cc2c(SC)nc(SC)nc2n1
- TGI (SNB-78 CNS): > 100 µM
- TGI (HOP-18 NSCLC): > 100 µM
- TGI (SR leukemia): > 100 µM
- TGI (A498 renal): > 100 µM
- TGI (NCI-H23 lung): > 100 µM
- TGI (DMS 114 small cell lung): > 100 µM
- TGI (RPMI-8226 leukemia): > 100 µM
- TGI (SN12C renal): > 100 µM
- TGI (XF 498 CNS): > 100 µM
- TGI (COLO 205 colon): > 100 µM

SMILES: O=c1/c(=C/c2ccc([N+](=O)[O-])o2)sc2n1[C@@H](c1ccc(Cl)cc1)C=C(c1cc(F)c(Cl)cc1Cl)N=2
- TGI (A498 renal): > 100 µM
- TGI (NCI-H23 lung): 39.4 µM
- TGI (UACC-62 melanoma): 29.2 µM
- TGI (RPMI-8226 leukemia): 25.9 µM
- TGI (SN12C renal): 19.5 µM
- TGI (COLO 205 colon): 16.2 µM
- TGI (786-0 renal): 20.7 µM
- TGI (BT-549 breast): 28.7 µM

SMILES: COc1ccc(-c2cc(-c3ccc(O)cc3O)c(C#N)c(=O)[nH]2)cc1
- TGI (SR leukemia): 53.4 µM
- TGI (NCI-H23 lung): 71.1 µM
- TGI (UACC-62 melanoma): 36.2 µM
- TGI (RPMI-8226 leukemia): 43.5 µM
- TGI (SN12C renal): 40.9 µM
- TGI (COLO 205 colon): 31.6 µM
- TGI (786-0 renal): 40.9 µM
- TGI (BT-549 breast): 55.9 µM

SMILES: C/C(=N\NC(=S)NCCCCNC(=S)N/N=C(\C)c1ccccn1)c1ccccc1
- TGI (SR leukemia): 2.17 µM
- TGI (A498 renal): 15 µM
- TGI (NCI-H23 lung): 25.3 µM
- TGI (UACC-62 melanoma): 7.03 µM
- TGI (RPMI-8226 leukemia): 14.3 µM
- TGI (SN12C renal): 4.43 µM
- TGI (BT-549 breast): 29.5 µM

SMILES: COc1ccc(C(O)(c2ccccc2)c2nccc3ccccc23)cc1 (stereo not given)
- TGI (SR leukemia): > 100 µM
- TGI (NCI-H23 lung): > 100 µM
- TGI (UACC-62 melanoma): > 100 µM
- TGI (RPMI-8226 leukemia): > 100 µM
- TGI (SN12C renal): > 100 µM
- TGI (COLO 205 colon): > 100 µM
- TGI (786-0 renal): > 100 µM
- TGI (BT-549 breast): > 100 µM

SMILES: CCOC(=O)CCSc1nc2ccc(I)cc2c(=O)n1Cc1ccccc1
- TGI (SR leukemia): 29.5 µM
- TGI (A498 renal): > 79.2 µM
- TGI (NCI-H23 lung): > 64.4 µM
- TGI (UACC-62 melanoma): > 93.5 µM
- TGI (RPMI-8226 leukemia): 33.5 µM
- TGI (SN12C renal): > 100 µM
- TGI (COLO 205 colon): 26.9 µM
- TGI (786-0 renal): > 96.8 µM
- TGI (BT-549 breast): > 94.4 µM

SMILES: COc1cc2c(cc1OCCCOS(C)(=O)=O)N=C[C@@H]1CCCN1C2=O
- GI50 (SR leukemia): 62.9 µM
- TGI (SR leukemia): > 100 µM
- TGI (A498 renal): > 100 µM
- TGI (NCI-H23 lung): > 100 µM
- TGI (UACC-62 melanoma): > 100 µM
- TGI (RPMI-8226 leukemia): > 100 µM
- TGI (SN12C renal): > 100 µM
- TGI (COLO 205 colon): > 100 µM
- TGI (786-0 renal): > 100 µM

SMILES: Cn1ncc2c(Nc3cccc(Cl)c3)nc(Nc3cccc(Cl)c3)nc21
- TGI (A498 renal): 28.9 µM
- TGI (NCI-H23 lung): 57.1 µM
- TGI (UACC-62 melanoma): 38.5 µM
- TGI (RPMI-8226 leukemia): 19.8 µM
- TGI (SN12C renal): > 67.5 µM
- TGI (COLO 205 colon): > 53.8 µM
- TGI (786-0 renal): 4.84 µM
- TGI (BT-549 breast): 59 µM

SMILES: O=C(O)CCc1nc2ccccc2[nH]1
- TGI (SR leukemia): > 100 µM
- TGI (A498 renal): > 100 µM
- TGI (NCI-H23 lung): > 100 µM
- TGI (UACC-62 melanoma): > 100 µM
- TGI (RPMI-8226 leukemia): > 100 µM
- TGI (SN12C renal): > 100 µM
- TGI (COLO 205 colon): > 100 µM
- TGI (786-0 renal): > 100 µM
- TGI (BT-549 breast): > 100 µM
